Test results reported in patent US10736913B1, “Use of inosine for cancer immunotherapy” (IMMUNOSPARKLE BIOSCIENCE LLC, priority 2019, dated 2020).
“Also recorded” adds a separate entry of the source.

Tests used:
[1] = system: B16-GM tumors; test: B16-GM metastatic melanoma tumor model in mice (tumor volume, weight, lung metastasis, survival)
Procedure: B16-GM cells were injected subcutaneously into eight-week-old female C57BL/6 mice (2×10^5/mouse). Anti-CTLA4 antibody (100 μg per mouse) and anti-PD-1 antibody (200 μg per mouse) were injected i.p on days 7, 10, 13 and 16. 400 mg/kg of inosine per day was orally administered to mice from day 4 to day 21.
(§1) All the cell lines were confirmed to be mycoplasma free. Cells were cultured using DMEM (Corning) with 10% fetal bovine serum (Corning) and 1% Pen/Strep (Life Technologies). Cells were incubated in an incubator maintained at 37° C. and 5% CO2. 75-80% of confluent cells were harvested for orthotopic injection.
(§2) For the melanoma model, 2×10^5 B16 or B16-GM cells were harvested for orthotopic injection into the subcutaneous (s.c.) of C57BL/6J mice (6-8 weeks) using 0.25% Trypsin (Corning) and suspended in DPBS (Gibco).
(§3) Treatments were given as single agents or in combination with the following regimen. Inosine (Sigma-Aldrich) was dissolved in sterilized water to yield a concentration of 40 mg/ml, and administered by oral gavage once a day at 400 mg/kg body weight. Treatment was initiated on day 4 and ended on day 21 post tumor implant. Control groups received vehicle (water) by oral gavage. […] Tumors were measured every third day with a caliper, and measurements were assessed manually by assessing the longest dimension (length) and the longest perpendicular dimension (width). […]

[2] = system: MHC-I (H2kb) on B16 cells; test: Flow cytometry of membrane MHC-I (H2kb) expression; format: cell-based, murine; conditions: inosine at 500
Procedure: B16 cells were stained for flow cytometry to determine the membrane MHC-I expression level.
For MHC-I expression flow analysis on the tumor cell, one million cells per condition were stained with the PE anti-mouse H-2Kb antibody (Biolegend) diluted in PBS plus 2% FBS and kept for 30 min on ice. Matched isotype control Ab was performed as a control.

[3] = system: 4T1 tumors; test: 4T1 breast cancer tumor model in mice (tumor volume, weight); format: in vivo; conditions: 4T1 tumor-bearing Balb/c mice; inosine 400 mg/kg/day oral day 4 to 21; anti-CTLA4 100 μg + anti-PD-1 200 μg i.p. days 7, 10, 13, 16
Procedure: 4T1 cells were injected into the mammary fat pad of eight-week-old female Balb/c mice (2×10^5/mouse). […] Results are shown as mean±SEM. (*** indicates P<0.001).
4T1 cells were injected into the mammary fat pad of eight-week-old female Balb/c mice (2×10^5/mouse). […] Results are shown as mean±SEM. (** indicates P<0.01)

[4] = system: B16 tumors; test: B16 melanoma tumor model in mice (tumor volume, survival); conditions: B16 tumor-bearing C57BL/6 mice; inosine 400 mg/kg/day oral from day 4; anti-CTLA4 100 μg + anti-PD-1 200 μg i.p. days 7, 10, 13, 16
Procedure: B16 cells were injected subcutaneously into eight-week-old female C57BL/6 mice (2×10^5/mouse). Anti-CTLA4 antibody (100 μg per mouse) and anti-PD-1 antibody (200 μg per mouse) were injected i.p on days 7, 10, 13 and 16. 400 mg/kg body weight of inosine per day was orally administered to mice from day 4.
as §1, §2, §3

[5] = system: H2k1, H2d1, Stat1, Stat3, Irf1 mRNA in B16 cells; test: Reverse transcription quantitative PCR of antigen presentation-related and IFN signaling genes; format: cell-based, murine; conditions: inosine at 500
Procedure: Tumor cells cDNA was prepared using 1 μg RNA with the qScript cDNA Synthesis Kit (Bio-Rad). SYBR green-based qPCR was performed using murine primers to H2k1, H2d1, Stat1, Stat3, and Irf1. Relative copy number was determined by calculating the fold-change difference in the gene of interest relative to 18sRNA (ΔCt=Ct gene of interest−Ct 18sRNA) and reported as relative mRNA expression (ΔΔCt=2^−(ΔCt sample−ΔCt control)) or fold change. qPCR was performed on an Applied Biosystems 7300 machine.

[6] = system: B16 tumor cells; test: Cell apoptosis assay (Annexin V / 7-AAD flow cytometry); format: cell-based, murine; conditions: B16 cells in vitro; inosine same concentrations as FIG. 2A; 48 h
Procedure: Tumor cells were seeded in a 6-well plate and grown for 24 h. Cells were then treated with control (vehicle) or 1, 10, 50, 100 μM inosine. After 48 h of treatment, cells were harvested by trypsinization, resuspended at 10^6 cells/ml in 1× Annexin V Binding Buffer (BD Biosciences), and 100 μl (10^5 cells) were added to each FACS tube. Cells were stained with 7-AAD (5 μl/100 μl, BD Biosciences, to assess cell death), and APC-conjugated Annexin V (5 μl/100 μl, BD Biosciences, to assess apoptosis) for 30 min and analyzed by BD FACSCanto II. FACS data were acquired using FACSDiva (BD Biosciences) and analyzed using FlowJo software (Tree Star) and the percentage of APC^+ cells obtained.

[7] = system: CD4+ and CD8+ T cells in B16 tumors; test: Flow cytometry of tumor-infiltrating T lymphocytes in B16 tumors; format: in vivo, C57BL/6 mice; conditions: n=5 tumors
Procedure: Tumors from the indicated treatment group were mechanically minced for the isolation of infiltrating lymphocytes. Cells were counted and stained for flow cytometry to determine the percentage of CD4^+ and CD8^+ T lymphocytes in total CD45^+ immune cells.
Results are shown as mean±SEM (* P<0.05; ** P<0.01) and statistics were calculated using the unpaired t-test with Welch's correction.
Mouse tumor samples were minced with scissors before incubation with dissociation buffer (2 mg/ml collagenase type A, 0.02 mg/ml DNase in RPMI1640 containing 5% FBS, PenStrep) with agitation at 37° C. for 45 min. Tumor samples were homogenized by repeated pipetting and filtered through a 70-μm nylon filter (BD Biosciences) in RPMI supplemented with 10% FBS to generate single-cell suspensions. Cell suspensions were washed once with complete RPMI. After lysis of red blood cells, single-cell suspensions were blocked with anti-CD16/32 (Biolegend) for 20 min on ice and then incubated with appropriate antibodies for 30 min on ice: anti-CD45-APC-Cy7, CD3-FITC, CD8-PercP-Cy5.5, CD4-PE. Dead cells and doublets were excluded on the basis of forward and side scatter and Fixable Viability Dye eFluor 450 (eBioscience). Flow cytometry was performed on FACSCanto II (BD Biosciences), and data were analyzed using FlowJo (TreeStar).

[8] = system: B16 tumor cells; test: MTT cell proliferation assay; format: cell-based, murine; conditions: B16 cells in vitro; inosine 10, 50, 200 μM; 0-96 h
Procedure: MTT assays were used to determine the cell viability of B16 tumor cells treated with control vehicle; the concentration of inosine administered is indicated, where “Ino-10” means 10 μM Inosine; “Ino-50” means 50 μM Inosine and “Ino-200” means 200 μM Inosine.
Cell proliferation ability was examined at 0, 24, 48, 72 h and 96 h using a Cell Proliferation Reagent Kit I (MTT; Sigma) according to the manufacturer's instruction. Cells were seeded in a 96-well plate in triplicate at a concentration of 2×10^3 cells/well. On the indicated day, the medium was removed and the MTT solution was added to the wells. Four hours later, DMSO was added and the cells were further incubated for 10 min with gentle shaking at 37° C. Finally, the optical density of each well was measured using a microplate reader at 550 nm.

[9] = background; cited from earlier work

OC[C@H]1O[C@@H](n2cnc3c(O)ncnc32)[C@H](O)[C@@H]1O [inosine, 9-[(2R,3R,4S,5R)-3,4-dihydroxy-5-(hydroxymethyl)oxolan-2-yl]-1H-purin-6-one]
tumor volume / tumor growth ([1]; B16-GM tumor-bearing C57BL/6 mice, inosine 400 mg/kg/day oral day 4 to 21, anti-CTLA4 100 μg + anti-PD-1 200 μg i.p. days 7, 10, 13, 16): reduced tumor size
lung metastasis (metastatic nodules) ([1]; B16-GM tumor-bearing mice, day 18): significant reduction in lung metastasis
membrane MHC-I (H2kb) expression [2]: enhances the expression of MHC-I; also recorded: increases the membrane protein level of MHC-I
tumor volume / tumor growth [3]: does not significantly affect tumor growth
tumor volume / tumor growth [4]: inhibited tumor growth in vivo; also recorded: enhanced the antitumor efficacy of ICB
relative mRNA expression of antigen presentation-related genes (H2k1, H2d1) and IFN signaling genes (Stat1, Stat3, Irf1) [5]: stimulates interferon signaling and antigen presentation-related genes; also recorded: increases the expression of antigen presentation-related genes and IFN signaling genes
apoptotic tumor cells [6]: didn't inhibit tumor cell proliferation and promote apoptosis; also recorded: doesn't induce the apoptosis
CD8+ T cell population in tumors [7]: increased the cytotoxic CD8^+ T infiltration
proliferation / cell viability (MTT) [8]: didn't inhibit tumor cell proliferation; also recorded: doesn't inhibit the proliferation
half-life [9]: approximately 15 h
